Values after ≈ are worked out from the molar mass of the structure shown. Active and inactive are the calls of the source. The calls are words filed in the database; no cut-off is given here.
Legend:
Staphylococcus aureus = test: Antibacterial activity against Staphylococcus aureus DSM11822 assessed as growth inhibition by measuring minimal concentration at OD600 by visual inspection with iron-limited media incubated for 24 hrs; format: functional
Klebsiella pneumoniae = test: Antibacterial activity against Klebsiella pneumoniae DSM11678 assessed as growth inhibition by measuring minimal concentration at OD600 by visual inspection with iron-limited media incubated for 24 hrs; format: functional, organism-based
Enterococcus faecium = test: Antibacterial activity against Enterococcus faecium DSM20477 assessed as growth inhibition by measuring minimal concentration at OD600 by visual inspection with iron-limited media incubated for 24 hrs; format: functional
Pseudomonas aeruginosa = test: Antibacterial activity against Pseudomonas aeruginosa DSM24068 assessed as growth inhibition by measuring minimal concentration at OD600 by visual inspection with iron-limited media incubated for 24 hrs; format: functional, organism-based
Escherichia coli [1] = test: Antibacterial activity against Escherichia coli BW25113 assessed as growth inhibition by measuring minimal concentration at OD600 by visual inspection with iron-limited media incubated for 24 hrs; format: functional
Acinetobacter baumannii = test: Antibacterial activity against Acinetobacter baumannii DSM30007 assessed as growth inhibition by measuring minimal concentration at OD600 by visual inspection with iron-limited media incubated for 24 hrs; format: functional
Escherichia coli [2] = test: Recovery of growth in Escherichia coli BW25113 delta entA delta fepA double knock out assessed as reversal of growth at 10 uM in presence of 0.1 uM iron(III) chloride hexahydrate by growth recovery assay; format: functional, organism-based
Escherichia coli [3] = test: Recovery of growth in Escherichia coli BW25113 delta entA delta fepA double knock out assessed as reversal of growth at 10 uM in presence of 0.1 uM iron(III) chloride hexahydrate measured after reintroduction of plasmid expressing full length FepA by growth recovery assay; format: functional, organism-based
Escherichia coli [4] = test: Recovery of growth in Escherichia coli BW25113 delta entA assessed as reversal of growth at 10 uM in presence of 0.1 uM iron(III) chloride hexahydrate by growth recovery assay; format: functional, organism-based
Escherichia coli [5] = test: Antibacterial activity against Escherichia coli delta fepA assessed as growth inhibition by measuring minimal concentration at OD600 by visual inspection with iron-limited media incubated for 24 hrs; format: functional
Escherichia coli [6] = test: Antibacterial activity against Escherichia coli delta […] delta fiu assessed as growth inhibition by measuring minimal concentration at OD600 by visual inspection with iron-limited media incubated for 24 hrs; format: functional
Escherichia coli [7] = test: Antibacterial activity against Escherichia coli delta fepD assessed as growth inhibition by measuring minimal concentration at OD600 by visual inspection with iron-limited media incubated for 24 hrs; format: functional
Escherichia coli [8] = test: Antibacterial activity against Escherichia coli delta fepA delta cirA delta fiu assessed as growth inhibition by measuring minimal concentration at OD600 by visual inspection with iron-limited media incubated for 24 hrs; format: functional
Escherichia coli [9] = test: Antibacterial activity against Escherichia coli delta cirA assessed as growth inhibition by measuring minimal concentration at OD600 by visual inspection with iron-limited media incubated for 24 hrs; format: functional
Escherichia coli [10] = test: Antibacterial activity against wild type Escherichia coli BW25113 assessed as growth inhibition by measuring minimal concentration at OD600 by visual inspection with iron-limited media incubated for 24 hrs; format: functional
Escherichia coli [11] = test: Antibacterial activity against Escherichia coli delta fiu assessed as growth inhibition by measuring minimal concentration at OD600 by visual inspection with iron-limited media incubated for 24 hrs; format: functional
Escherichia coli [12] = test: Antibacterial activity against Escherichia coli delta exbB assessed as growth inhibition by measuring minimal concentration at OD600 by visual inspection with iron-limited media incubated for 24 hrs; format: functional
Escherichia coli [13] = test: Antibacterial activity against Escherichia coli delta fepB assessed as growth inhibition by measuring minimal concentration at OD600 by visual inspection with iron-limited media incubated for 24 hrs; format: functional
Escherichia coli [14] = test: Antibacterial activity against Escherichia coli delta fepA delta cirA assessed as growth inhibition by measuring minimal concentration at OD600 by visual inspection with iron-limited media incubated for 24 hrs; format: functional
Escherichia coli [15] = test: Antibacterial activity against Escherichia coli delta cirA delta fiu assessed as growth inhibition by measuring minimal concentration at OD600 by visual inspection with iron-limited media incubated for 24 hrs; format: functional
Escherichia coli [16] = test: Antibacterial activity against Escherichia coli delta tonB assessed as growth inhibition by measuring minimal concentration at OD600 by visual inspection with iron-limited media incubated for 24 hrs; format: functional

MIC (Staphylococcus aureus) [µM]	MIC (Enterococcus faecium) [µM]	MIC (Escherichia coli [1]) [µM]	MIC (Acinetobacter baumannii) [µM]	Structure (SMILES)	Activity (Klebsiella pneumoniae)	Activity (Pseudomonas aeruginosa)	Activity (Escherichia coli [4])	also measured
8.7 (≈ 21.3 µg/mL)	13 (≈ 31.8 µg/mL)	> 64	4.4 (≈ 10.7 µg/mL)	CCCCCCCCCC(=O)N[C@@H](Cc1c[nH]c2ccccc12)C(=O)N[C@H](CC(N)=O)C(=O)N[C@@H](CC(=O)O)C(=O)N[C@@H]1C(=O)NCC(=O)N[C@@H](CCCNC(=O)CCCCCn2cc(CCCC(=O)Nc3c(CNC(=O)c4cccc(O)c4O)cc(CNC(=O)c4cccc(O)c4O)cc3CNC(=O)c3cccc(O)c3O)nn2)C(=O)N[C@@H](CC(=O)O)C(=O)N[C@H](C)C(=O)N[C@@H](CC(=O)O)C(=O)NCC(=O)N[C@H](CO)C(=O)N[C@@H]([C@@H](C)CC(=O)O)C(=O)N[C@@H](CC(=O)c2ccccc2N)C(=O)O[C@@H]1C	inactive	inactive	–	–
–	–	–	–	CC(=O)Oc1cccc(C(=O)NCc2cc(CNC(=O)c3cccc(OC(C)=O)c3OC(C)=O)c([N+](=O)[O-])c(CNC(=O)c3cccc(OC(C)=O)c3OC(C)=O)c2)c1OC(C)=O	–	–	Active	Activity (Escherichia coli [2]): inactive; Activity (Escherichia coli [3]): Active
5.3 (≈ 5.98 µg/mL)	> 57	0.89 (≈ 1 µg/mL)	> 57	CC1(C)S[C@@H]2[C@H](NC(=O)[C@H](NC(=O)CCn3cc(CCCC(=O)Nc4c(CNC(=O)c5cccc(O)c5O)cc(CNC(=O)c5cccc(O)c5O)cc4CNC(=O)c4cccc(O)c4O)nn3)c3ccccc3)C(=O)N2[C@H]1C(=O)O	inactive	inactive	–	–
–	–	–	–	CC(=O)Oc1cccc(C(=O)NCCc2cc(CCNC(=O)c3cccc(OC(C)=O)c3OC(C)=O)c([N+](=O)[O-])c(CCNC(=O)c3cccc(OC(C)=O)c3OC(C)=O)c2)c1OC(C)=O	–	–	Active	–
> 64	> 64	0.81 (≈ 1.24 µg/mL)	64 (≈ 97.9 µg/mL)	CC(=O)Oc1cccc(C(=O)NCc2cc(CNC(=O)c3cccc(OC(C)=O)c3OC(C)=O)c(NC(=O)CCOCCOCCOCCOCc3cn(CCC(=O)N[C@@H](C(=O)N[C@@H]4C(=O)N5[C@@H]4SC(C)(C)[C@@H]5C(=O)O)c4ccccc4)nn3)c(CNC(=O)c3cccc(OC(C)=O)c3OC(C)=O)c2)c1OC(C)=O	inactive	inactive	–	–
> 56	> 56	0.87 (≈ 0.996 µg/mL)	56 (≈ 64.1 µg/mL)	CC1(C)S[C@@H]2[C@H](NC(=O)[C@H](NC(=O)CCn3cc(CCCC(=O)Nc4c(CNC(=O)c5cccc(O)c5O)cc(CNC(=O)c5cccc(O)c5O)cc4CNC(=O)c4cccc(O)c4O)nn3)c3ccc(O)cc3)C(=O)N2[C@H]1C(=O)O	inactive	inactive	–	–
> 183	2.7 (≈ 0.943 µg/mL)	19 (≈ 6.64 µg/mL)	> 183	CC1(C)S[C@@H]2[C@H](NC(=O)[C@H](N)c3ccccc3)C(=O)N2[C@H]1C(=O)O [AMPICILLIN]	–	–	–	MIC (Escherichia coli [5]): 46 µM (≈ 16.1 µg/mL); MIC (Escherichia coli [6]): 46 µM (≈ 16.1 µg/mL); MIC (Escherichia coli [7]): 46 µM (≈ 16.1 µg/mL); MIC (Escherichia coli [8]): 46 µM (≈ 16.1 µg/mL); MIC (Escherichia coli [9]): 46 µM (≈ 16.1 µg/mL); MIC (Escherichia coli [10]): 46 µM (≈ 16.1 µg/mL); MIC (Escherichia coli [11]): 46 µM (≈ 16.1 µg/mL); MIC (Escherichia coli [12]): 46 µM (≈ 16.1 µg/mL); MIC (Escherichia coli [13]): 46 µM (≈ 16.1 µg/mL); MIC (Escherichia coli [14]): 46 µM (≈ 16.1 µg/mL); MIC (Escherichia coli [15]): 46 µM (≈ 16.1 µg/mL); MIC (Escherichia coli [16]): 46 µM (≈ 16.1 µg/mL)
–	–	–	–	CC(=O)Oc1cccc(C(=O)NCc2cc(CNC(=O)c3cccc(OC(C)=O)c3OC(C)=O)cc(CNC(=O)c3cccc(OC(C)=O)c3OC(C)=O)c2)c1OC(C)=O	–	–	Active	–

Reference: ChEMBL document CHEMBL4831541, “Antibiotic Conjugates with an Artificial MECAM-Based Siderophore Are Potent Agents against Gram-Positive and Gram-Negative Bacterial Pathogens” (2021)
